According to PubChem BioAssay AID1033 (Sanford-Burnham Center for Chemical Genomics, 2008):
The source made the active and inactive calls. The rule behind the calls is not given here.

Biological target: Chaperone protein DnaK (Escherichia coli (strain K12)) (UniProt P0A6Y8)
Assay: binders of DnaK substrate-binding domain, biophysical, NMR, chaperone (AID 1033)
Conditions: Purified DnaK SBD, NMR ligand binding

Chaperone protein DnaK (Escherichia coli (strain K12)), sequence (P0A6Y8 whole entry, looked up, the tested form may be a part): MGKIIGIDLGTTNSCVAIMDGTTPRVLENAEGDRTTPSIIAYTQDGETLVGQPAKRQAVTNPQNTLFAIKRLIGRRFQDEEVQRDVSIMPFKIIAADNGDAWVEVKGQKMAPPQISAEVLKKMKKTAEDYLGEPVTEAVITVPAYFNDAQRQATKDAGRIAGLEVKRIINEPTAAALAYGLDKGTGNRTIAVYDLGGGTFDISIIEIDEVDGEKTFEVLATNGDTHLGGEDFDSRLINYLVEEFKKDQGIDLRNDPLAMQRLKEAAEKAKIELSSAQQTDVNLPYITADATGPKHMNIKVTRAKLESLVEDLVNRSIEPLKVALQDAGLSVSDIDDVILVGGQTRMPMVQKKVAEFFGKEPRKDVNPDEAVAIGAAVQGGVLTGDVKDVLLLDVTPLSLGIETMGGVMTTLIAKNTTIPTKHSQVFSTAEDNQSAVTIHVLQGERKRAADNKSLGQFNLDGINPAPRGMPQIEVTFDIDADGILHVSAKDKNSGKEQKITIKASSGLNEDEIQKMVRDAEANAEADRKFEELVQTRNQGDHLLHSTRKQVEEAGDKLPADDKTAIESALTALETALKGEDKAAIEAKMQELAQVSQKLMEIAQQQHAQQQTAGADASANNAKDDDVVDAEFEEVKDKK

Row | Compound | Kd
1 | CN1C(=O)/C(=C/c2ccc(O)cc2O)SC1=S | > 4 mM (inactive)
2 | O=c1[nH]cnc2nc[nH]c12 | > 4 mM (inactive)
3 | Oc1cc(O)cc(/C=C/c2ccccc2)c1 | > 4 mM (inactive)
4 | OCC1COc2ccccc2O1 (configuration not stated) | > 4 mM (inactive)
5 | COc1cc(O)c2c(c1)C(=O)c1cc(C)cc(O)c1C2=O | > 4 mM (inactive)
6 | Nc1c(C(=O)O)sc2ncccc12 | > 4 mM (inactive)
7 | NCCN=C1NS(=O)(=O)c2ccccc21 | > 4 mM (inactive)
8 | O=C(Nc1nnc(-c2ccco2)o1)C1=COCCO1 | > 4 mM (inactive)
9 | Cc1cc(C(=O)NC2=NCCS2)cs1 | > 4 mM (inactive)
10 | OCC1CN(Cc2ccccc2)CCO1 (configuration not stated) | > 4 mM (inactive)
11 | COc1cc([C@@H]2c3cc4c(cc3[C@H](O)[C@H]3COC(=O)[C@H]23)OCO4)cc(OC)c1OC | > 4 mM (inactive)
12 | COc1ccc(C(=O)NNC(=S)NC(C)=O)cc1 | > 4 mM (inactive)
13 | CCOC(=O)c1c(-c2ccncc2)csc1N | > 4 mM (inactive)
14 | COCc1nn2c(N)c(C#N)cnc2c1-c1ccccc1 | > 4 mM (inactive)
15 | O=C(O)CNC(=O)c1ccccc1Cl | > 4 mM (inactive)
16 | C=C1CCC(C2CC(=O)OC2=O)C(=O)CCC2C1CC2(C)C (configuration not stated) | > 4 mM (inactive)
17 | CC1(C)CC(NC(=O)/C=C/C(=O)O)CC(C)(C)N1 | > 4 mM (inactive)
18 | O=C1NC(=S)N/C1=C/c1ccsc1 | > 4 mM (inactive)
19 | C[C@H]1O[C@@H](O[C@H]2[C@@H](O)C[C@H](O[C@H]3[C@@H](O)C[C@H](O[C@H]4CC[C@]5(C)C6C[C@@H](O)[C@]7(C)[C@@H](C8=CC(=O)OC8)CC[C@]7(O)C6CC[C@@H]5C4)O[C@@H]3C)O[C@@H]2C)C[C@H](O)[C@@H]1O (some centres not stated) | > 4 mM (inactive)
20 | COc1c2c(cc3c1OCO3)CCN(C)C2 | > 4 mM (inactive)
21 | Nc1nc(O)c(C2=c3cc(Cl)ccc3=NC2=O)s1 | > 4 mM (inactive)
22 | COC1C=CC23c4cc5c(cc4CN(CC2O)[C@@H]3C1)OCO5 (some centres not stated) | > 4 mM (inactive)
23 | Cn1c(=O)c2[nH]cnc2n(C)c1=O | > 4 mM (inactive)

Row | Compound | Kd
24 | COC(=O)c1sc(N)nc1C | > 4 mM (inactive)
25 | Cc1ccc(N2CCN(C(=O)c3ccccc3)CC2)c(C)c1 | > 4 mM (inactive)
26 | COC(=O)[C@@H]1OC(=O)C2OC23[C@@]1(C)CCC1[C@]2(C)C(C[C@H](O)[C@]13C)C(C)(C)[C@H](OC(C)=O)C[C@@H]2OC(C)=O (some centres not stated) | > 4 mM (inactive)
27 | Cn1nc(C(=O)N2CCCC2)c2ccccc2c1=O | > 4 mM (inactive)
28 | COc1cccc(-c2nc3ccc(O)cc3c(=O)o2)c1 | > 4 mM (inactive)
29 | O=C(Nc1ccc(N2CCCC2=O)cc1)c1cccc(F)c1 | > 4 mM (inactive)
30 | O=C1Nc2ccc(S(=O)(=O)NCCO)c3cccc1c23 | > 4 mM (inactive)
31 | Nc1ncnc(Nc2ccccc2C(F)(F)F)n1 | > 4 mM (inactive)
32 | COc1ccc(-c2cc(=O)c3c(O)cc(O[C@H]4O[C@H](CO[C@@H]5O[C@@H](C)[C@H](O)[C@@H](O)[C@H]5O)[C@@H](O)[C@H](O)[C@H]4O)cc3o2)cc1 | > 4 mM (inactive)
33 | COc1cc(C2NC(=S)NC(C)=C2C(C)=O)ccc1O (configuration not stated) | > 4 mM (inactive)
34 | COc1nc(N2CCOCC2)nc(N)c1[N+](=O)[O-] | > 4 mM (inactive)
35 | COC(=O)C1CSCC1=O (configuration not stated) | > 4 mM (inactive)
36 | NC1=NC(=O)/C(=C\c2ccccc2)S1 | > 4 mM (inactive)
37 | COc1ccc(C(=O)/C=C/c2ccccc2)cc1 | > 4 mM (inactive)
38 | O=C1CC(=O)N(Cc2ccco2)C(=S)N1 | > 4 mM (inactive)
39 | O=c1[nH]c(O)c(C=NC2CC2)c(=O)[nH]1 | > 4 mM (inactive)
40 | COC(=O)c1cc2ccccc2cn1 | > 4 mM (inactive)
41 | Oc1ccc(-c2n[nH]c(=S)n2Cc2ccco2)cc1 | > 4 mM (inactive)
42 | C=C1CCC(=O)C(C)CCC2C1CC2(C)C (configuration not stated) | > 4 mM (inactive)
43 | CC(=O)Nc1ccc(S(N)(=O)=O)cc1 | > 4 mM (inactive)
44 | NC1=NC(=O)/C(=C\c2ccco2)S1 | > 4 mM (inactive)
45 | NC(=O)C1CCN(CN2C(=O)c3ccccc3C2=O)CC1 | > 4 mM (inactive)
46 | Cc1ccccc1CSc1nnc(C)n1N | > 4 mM (inactive)

Row | Compound | Kd
47 | CCc1c(C)n([O-])c2c([n+]1=O)CCC2 | > 4 mM (inactive)
48 | CC1(C)N=C2C(=[N+]1[O-])CCC/C2=N\O | > 4 mM (inactive)
49 | c1ccc(CCc2nc(-c3ccncc3)no2)cc1 | > 4 mM (inactive)
50 | Cc1nn2c(=O)/c(=C/c3cccc(F)c3)sc2nc1=O | > 4 mM (inactive)
51 | CCCS(=O)(=O)N1CCN(c2ccccn2)CC1 | > 4 mM (inactive)
52 | CSc1ncc(CO)n1Cc1ccccc1 | > 4 mM (inactive)
53 | COc1cc(C(C)=O)ccc1OCC(O)Cn1ccnc1 (configuration not stated) | > 4 mM (inactive)
54 | COc1cc(CNC(=O)CCCC/C=C/C(C)C)ccc1O | > 4 mM (inactive)
55 | CCC(/C=C/[C@@H](C)[C@H]1CCC2C3CC=C4C[C@@H](O)CC[C@]4(C)C3CC[C@@]21C)C(C)C (some centres not stated) | > 4 mM (inactive)
56 | O=C(Nc1cnccn1)c1cccs1 | > 4 mM (inactive)
57 | N[C@@H](C(=O)O)[C@@H](O)[C@H](O)[C@H](O)CO | > 4 mM (inactive)
58 | CC1(C)Cc2nc3n[nH]c(N)c3cc2CO1 | > 4 mM (inactive)
59 | O=C1CSC(=Nc2ccc(F)cc2)N1 | > 4 mM (inactive)
60 | CCOC12NC(=O)CC(=O)N1C(c1ccccc1)=CS2 (configuration not stated) | > 4 mM (inactive)
61 | CC(=O)OCC[C@H](C)CCC=C(C)C | > 4 mM (inactive)
62 | CC1(C)C(=O)C=C[C@@]2(C)C1C[C@@H](O)[C@]1(C)C2CC[C@@]2(C)[C@H](c3ccoc3)OC(=O)[C@H]3O[C@]321 (some centres not stated) | > 4 mM (inactive)
63 | Nc1c(Nc2ccccc2)c2ccccc2oc1=O | > 4 mM (inactive)
64 | Cc1ccc(/C=C2/C(=O)N=C(N)N2C)s1 | > 4 mM (inactive)
65 | CN1CCN(c2ccc(CN)cc2)CC1 | > 4 mM (inactive)
66 | COC(=O)[C@@H]1OC(=O)C2OC23[C@@]1(C)CCC1[C@@]2(C)CCC(=O)C(C)(C)C2C[C@@H](OC(C)=O)[C@]13C (some centres not stated) | > 4 mM (inactive)
67 | CN(C)c1ccc2c(=O)[nH][nH]c(=O)c2c1 | > 4 mM (inactive)
68 | COc1ccc2[nH]cc(CCNC(C)=O)c2c1 | > 4 mM (inactive)
69 | CC(=O)Oc1c2c(c3c(c1CC=C(C)C)O[C@]14C(=C[C@@H]5CC1C(C)(C)OC4(C/C=C(\C)C(=O)O)C5=O)C3=O)OC(C)(CCC=C(C)C)C=C2 (some centres not stated) | > 4 mM (inactive)

Row | Compound | Kd
70 | Cc1ccc(/C=C/C(=O)O)cc1S(=O)(=O)NCCO | > 4 mM (inactive)
71 | CCOC(=O)C1CCN(c2ccc(C#N)cc2)CC1 | > 4 mM (inactive)
72 | Cc1nc(-c2ccccc2)sc1CN | > 4 mM (inactive)
73 | O=c1cnnc(SCCc2ccccc2)[nH]1 | > 4 mM (inactive)
74 | NC(=O)c1ccc(SCC(=O)O)c([N+](=O)[O-])c1 | > 4 mM (inactive)
75 | O=C(O)c1ccc(-c2cccs2)cc1 | > 4 mM (inactive)
76 | CC1(C)C(=O)CC[C@@]2(C)C1C[C@@H](O)[C@@]1(C)C3=CC(=O)O[C@@H](c4ccoc4)[C@]3(C)CCC21 (some centres not stated) | > 4 mM (inactive)
77 | CC(=O)O[C@H]1CC[C@@]2(C)C(=CCC3C2CC[C@@]2(C)C3CC[C@@H]2C(C)CCCC(C)C)C1 (some centres not stated) | > 4 mM (inactive)
78 | Cn1[nH]c(C(F)(F)F)cc1=O | > 4 mM (inactive)
79 | COCc1nc(-c2cc(Br)ccc2OC)no1 | > 4 mM (inactive)
80 | CC(C)(O)P(C)(=O)c1ccccc1 (configuration not stated) | > 4 mM (inactive)
81 | COc1cc(-c2csc(C)n2)ccc1O | > 4 mM (inactive)
82 | COc1cc2nc(N3CCNCC3)nc(N)c2cc1OC | > 4 mM (inactive)
83 | O=C(Nc1nncs1)Oc1ccccc1 | > 4 mM (inactive)
84 | COc1cc(OC)c2c(OC)c(-c3ccc4c(c3)OCO4)c(=O)oc2c1 | > 4 mM (inactive)
85 | Cc1ccc(/C=N/n2c(C)nnc2C)cc1 | > 4 mM (inactive)
86 | O=c1c2ccccc2nc(-c2ccco2)n1-c1nccs1 | > 4 mM (inactive)
87 | CC(=O)O[C@@H]1CC2C(C)(C)C(=O)C=C[C@]2(C)C2CC[C@@]3(C)[C@H](c4ccoc4)OC(=O)[C@H]4O[C@]43[C@@]21C (some centres not stated) | > 4 mM (inactive)
88 | CC1(C)Oc2ccc(N)cc2O1 | > 4 mM (inactive)
89 | CC(=O)c1ccc2c(c1)OCCO2 | > 4 mM (inactive)
90 | COc1ccc([C@H]2Oc3c(I)c(OC)cc(OC)c3C[C@@H]2O)cc1OC | > 4 mM (inactive)
91 | CC(=O)OCc1cc(=O)n(C)c(=O)n1C | > 4 mM (inactive)
92 | COc1cc2nc[nH]c(=O)c2cc1OC | > 4 mM (inactive)

Row | Compound | Kd
93 | NC(=O)CSc1ccc(-c2ccco2)nn1 | > 4 mM (inactive)
94 | CC(=O)Nn1cc2c(=O)n(C)c(=O)n(C)c2c1 | > 4 mM (inactive)
95 | CN(C(=O)NC1CCS(=O)(=O)C1)C1CCCCC1 (configuration not stated) | > 4 mM (inactive)
96 | CC(=O)NC(O)C(=O)c1cccs1 (configuration not stated) | > 4 mM (inactive)
97 | O=c1nc(N2CCOCC2)nc2n1CCO2 | > 4 mM (inactive)
98 | CC1=C(C(=O)Nc2ccccc2)SCCO1 | > 4 mM (inactive)
99 | COc1ccc(C2=CC(=O)C=CC2=O)cc1 | > 4 mM (inactive)
100 | O=C(Nn1cnnc1)c1ccccc1Cl | > 4 mM (inactive)
101 | Cc1occc(=O)c1O | > 4 mM (inactive)
102 | Cc1nnc(SCC(=O)N2CCc3ccccc32)s1 | > 4 mM (inactive)
103 | O=C(NCCCSc1ncccn1)Nc1ncccn1 | > 4 mM (inactive)
104 | O=C(O)c1ccc(N2CCOCC2)cc1 | > 4 mM (inactive)
105 | COc1ccc(-c2coc3cc(OC(C)=O)cc(OC(C)=O)c3c2=O)cc1 | > 4 mM (inactive)
106 | c1csc(-c2nnc3ccccn23)c1 | > 4 mM (inactive)
107 | COc1ccc(NC(=O)CSc2nccc(=O)[nH]2)cc1 | > 4 mM (inactive)
108 | COc1c2ccoc2c(OC)c2oc(=O)ccc12 | > 4 mM (inactive)
109 | Fc1ccc(N2CCNCC2)cc1 | > 4 mM (inactive)
110 | NC(=O)c1ccc2c(c1)OCO2 | > 4 mM (inactive)
111 | Cc1n[nH]c(C)c1N | > 4 mM (inactive)
112 | Cc1cc2nc3c(=O)[nH]c(=O)nc-3n(CC(O)C(O)C(O)CO)c2cc1C (configuration not stated) | > 4 mM (inactive)
